Key:
porcine kidney DAO = biological target: T1, porcine kidney DAO (Sus scrofa, UniProt P00371); test: pkDAO enzymatic assay (porcine kidney DAO IC50 assay); format: biochemical; settings: D-alanine substrate, pH 8.3, 37° C., without FAD
T1 construct: purchased Sigma-Aldrich; host or cells: porcine kidney
Method: The DAAO enzymatic activity assay was modified according to the report of Oguri et al (Oguri, S., Screening of d-amino acid oxidase inhibitor by a new multi-assay method. Food chemistry 2007, 100 (2), 616). The DAAO activity was measured by using substrate D-alanine reaction produced hydrogen peroxide (H2O2) to further react with 3-(4-hydroxyphenyl) propionic acid (HPPA). The HPPA were oxidized by H2O2 and peroxidase to become the fluorogenic dimer which was measured to represent the activity of DAAO.
For porcine kidney DAO IC50 assay, the DAO substrate was prepared in 50 mM D-alanine (dissolved in 0.2 M Tris-HCl buffer, pH 8.3). A 100 μl of D-alanine solution was mixed with 4 μl (in 100% dimethyl sulfoxide, DMSO) of different concentrations of candidate compounds shown in tables below ranging from 48.83 μM, 97.66 μM, 195.31 μM, 390.63 μM, 781.25 μM, 1.56 mM, 3.13 mM, 6.25 mM, 12.50 mM, 25.00 mM, and 50.00 mM, with a final DMSO concentration of 0.167% in each reaction concentration. 10 μl of D-alanine and candidate compound mixture was incubated with 220 μl of Reaction Master Mix in black 96 well plate at 37° C. for 5 minutes. The Reaction Master Mix contained 110 μl of 5 U/mL porcine kidney DAO (Sigma-Aldrich, USA) solution (dissolved with 0.2 M Tris-HCl buffer, pH 8.3), 1.1 mL of 15 U/mL peroxidase solution (dissolved with 0.2 M Tris-HCl buffer, pH 8.3), 1.1 mL of 20 mM HPPA solution (dissolved with 0.2 M Tris-HCl buffer, pH 8.3), and 22 ml of 2 M Tris-HCl buffer (pH 8.3) for 110 reaction assays.
Fluorescence intensity (Fs) was measured at 405 nm by irradiation excitation at 320 nm. The higher the DAO enzymatic activity was, the higher the fluorescence intensity. The fluorometric inhibition indicator (Fi) was obtained from the following equation: Fi=(Fs-FDrug)/(FDMSO), where the fluorescent drug blank (FDrug) was measured in the drug mixture solution (using 0.2 M Tris HCl buffer, pH 8.3, without D-alanine). A DMSO blank (FDMSO) was measured under a 100% DMSO solution.
Although FAD is generally included in the reaction mixture in the D-amino acid oxidase assay since it easily dissociates from the holoenzyme, the present method was performed without FAD. The inhibitory effect of DAO inhibitors was compared by using inhibitory concentrations leading to 50% inhibition of DAAO activity (IC50). The IC50 values were calculated by nonlinear regression model using GraphPad Prism, version 5(GraphPad Software, Inc., La Jolla, Calif.).

[1] = biological target: T2, DAO in SK-N-SH neuroblastoma cells (Homo sapiens, UniProt P14920); test: Cell-based DAO assay in SK-N-SH cells; set-up: key to Relative DAO activity normalize to DMSO at Final Conc. 100 uM / Relative DAO activity normalize to DMSO at Final Conc. 10 uM: fraction of DMSO-control DAO activity (1 = DMSO); settings: SK-N-SH 1.25*10^5 cells/well, drug treated for 3.5 hr; for IC50: 50 mM D-serine
T2 construct: endogenous in cells; host or cells: SK-N-SH neuroblastoma cells (ATCC)
Method: The SK-N-SH neuroblastoma cell line was purchased from American Type Culture Collection (ATCC). It was cultured in MEM media (Invitrogen/GIBCO, Rockville, Md.) supplemented with 10% fetal bovine serum, 1×NEAA (Invitrogen/GIBCO) at 37° C. with 5% CO2 in a humidified atmosphere. Cells were trypsinized and plated into a black 96-well plate (NUNC No. 237108) at a density of 125,000 cells/well in 50 μl before cell-based DAO assay.
The cellular DAO activity assay was using a method modified according to the report of Brandish et al. (Brandish, P. E., et al., A cell-based ultra-high-throughput screening assay for identifying inhibitors of D-amino acid oxidase. J Biomol Screen, 2006. 11(5): p. 481-7). SK-N-SH cells were suspended in assay buffers of HANKS buffer solution (Invitrogen/GIBCO No. 14025-092) with 20 mM HEPES. D-serine of (final concentration 50 mM) was added in each well as the substrate for DAO enzyme. The Amplex Red Hydrogen Peroxide/Proxidase Assay Kit (Molecular Probes/Invitrogen, cat. A22188) was used to measure H2O2 production which diffused across the cell membrane into the assay medium after DAO reaction. After seeding cells into black 96-well plate (Nunc No. 237108, Denmark), 50 μl of SK-N-SH cells (125,000 cells/well) was mixed with 50 μl drug solution (2.5 fold of interesting final concentration) and incubate at 37° C. with 5% CO2 in a humidified atmosphere for 30 minutes. After 30 minutes later, 25 μl of a 5 fold mixture containing D-serine, horseradish peroxidase (HRP), and Amplex Red was added into wells containing 100 μl of cell-drugs mixture and incubated at 37° C. with 5% CO2 in a humidified atmosphere for 3 hours. The final concentration of DMSO is below 1%. The fluorescence signal was then detected in SpectraMax M2e microplate reader (Molecular Devices, USA) with excitation at 544 nm and emission at 590 nm. The optimized assay buffer contained a final concentration of 50 mM D-serine, 0.625 units HRP, and 50 μM Amplex Red in a 125 μl assay volume.

T2 sequence (P14920 whole entry): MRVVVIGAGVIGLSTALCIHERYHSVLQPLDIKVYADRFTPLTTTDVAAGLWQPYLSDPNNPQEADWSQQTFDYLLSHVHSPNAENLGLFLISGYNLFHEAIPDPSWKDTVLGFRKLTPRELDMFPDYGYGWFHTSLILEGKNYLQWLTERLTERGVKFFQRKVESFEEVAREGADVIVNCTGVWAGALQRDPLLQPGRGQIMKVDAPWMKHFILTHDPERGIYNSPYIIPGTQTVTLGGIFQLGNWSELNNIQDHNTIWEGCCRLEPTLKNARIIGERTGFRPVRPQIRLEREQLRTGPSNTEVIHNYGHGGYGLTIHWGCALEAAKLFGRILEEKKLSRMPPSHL
T1 sequence (P00371 whole entry): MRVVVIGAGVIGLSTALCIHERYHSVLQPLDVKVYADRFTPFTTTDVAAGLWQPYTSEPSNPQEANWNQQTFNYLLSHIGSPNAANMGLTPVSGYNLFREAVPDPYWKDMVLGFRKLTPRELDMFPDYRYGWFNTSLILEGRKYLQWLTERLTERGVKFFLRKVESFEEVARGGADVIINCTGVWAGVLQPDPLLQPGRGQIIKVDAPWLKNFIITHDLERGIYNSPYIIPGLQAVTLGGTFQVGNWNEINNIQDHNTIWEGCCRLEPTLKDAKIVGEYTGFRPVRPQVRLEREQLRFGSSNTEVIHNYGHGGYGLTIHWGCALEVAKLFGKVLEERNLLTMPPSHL

| IC50 (porcine kidney DAO) | Relative DAO activity normalize to DMSO at Final Conc. 10 uM [1] | Relative DAO activity normalize to DMSO at Final Conc. 100 uM [1] | IC50 [1] | Compound |
| --- | --- | --- | --- | --- |
| 367 µM | 0.62 | 0.48 | 74.2 µM | COc1c(C)cnc(CSc2nc3cc(C(=O)O)ccc3n2CCC2=CCCCC2)c1C [compound 12083, 1-(2-(cyclohex-1-en-1-yl)ethyl)-2-(((4-methoxy-3,5-dimethylpyridin-2-yl)methyl)thio)-1H-benzo[d]imidazole-5-carboxylic acid] |
| 1.19 µM | 1.05 | 0.69 | 141 µM | COc1c(C)cnc(C[S+]([O-])c2nc3ccc(O)cc3[nH]2)c1C (centres unmarked) [RS-D7, reference compound] |

Source: patent publication US11370775B2, “Substituted benzimidazole derivatives as D-amino acid oxidase (DAAO) inhibitors” (NATIONAL TAIWAN UNIVERSITY, priority 2016, dated 2022)
